{"source": "patent US20080221211A1", "about": "“METHOD OF TREATMENT OF NEUROLOGICAL INJURY OR CANCER BY ADMINISTRATION OF DICHLOROACETATE” (priority 2007, published 2008)", "origin": "cited, not measured here", "key": {"cancer cell lines": {"system": "cancer cell lines", "details": "restored mitochondrial function and apoptosis"}, "tumors": {"system": "tumors", "details": "rat model"}, "[1]": {"details": "in vivo"}, "[2]": {"system": "infarct size after stroke", "details": "rat; given within 2.25 hours of a stroke"}, "[3]": {"system": "cytochome oxidase activity in primary neurons"}, "infarct size": {"system": "infarct size", "details": "rat pMCAo model; infusion"}}, "data": [{"compound": "O=C(O)C(Cl)Cl", "note": "[DCA, dichloroacetic acid]", "values": [{"measurement": "effect on cancer cells in vitro", "setting": "cancer cell lines", "result": "killing cancer cells in vitro"}, {"measurement": "effect on tumors in rats", "setting": "tumors", "result": "shrinking the tumors in rats"}, {"measurement": "reported adverse effect", "setting": "[1]", "result": "neuropathy"}]}, {"compound": "CC(C)(C)[N+]([O-])=Cc1ccc(S(=O)(=O)[O-])cc1S(=O)(=O)[O-].[Na+].[Na+]", "note": "[NXY-059]", "values": [{"measurement": "effect on infarct size", "setting": "[2]", "result": "reduces infarct size"}]}, {"compound": "NC1=N[C@H](O)[C@H]2[C@H]3O[C@]4(O)O[C@@H]([C@@H](O)[C@@]2(N1)[C@@H]4O)[C@]3(O)CO", "note": "[TTX, tetrodotoxin]", "values": [{"measurement": "effect on cytochrome oxidase activity", "setting": "[3]", "result": "reduces cytochome oxidase activity"}]}, {"compound": "VEGF", "values": [{"measurement": "effect on infarct size", "setting": "infarct size", "result": "reduction of infarct size"}]}]}
